# Assay results reported in publication PMC9654784, “Targeting SARS-CoV-2 nsp13 Helicase and Assessment of Druggability Pockets: Identification of Two Potent Inhibitors by a Multi-Site In Silico Drug Repurposing Approach” (Molecules, 2022).
# How the values were obtained:
# [1] = target: T1, SARS-CoV-2 nsp13 (Severe acute respiratory syndrome coronavirus 2, UniProt P0DTD1); test: SARS-CoV-2 nsp13 ATPase (NTPase)-associated activity; format: biochemical; details: for Percentage of control, NTPase activity: measured in the presence of the highest tested compound concentration
# Description: (§1) The SARS-CoV-2 nsp13 his-tagged was expressed in E. coli BL21 Rosetta 2 cells from a pNIC-ZB (addgene #159614). A purification protocol was adopted from Newman et al.. Terrific Broth media was used to culture the cells at 37 °C and at 200 rpm until 1.6 OD600. Then, protein expression was induced with […] for 16 h at 18 °C, at 200 rpm, and then pelleted and resuspended in lysis buffer (50 mM HEPES pH 7.5, 500 mM NaCl, 5% Glycerol, 10 mM Imidazole, 0.5 mM TCEP, Merck Protease inhibitor cocktail III, 1:500). After sonication and clarification at 15,000× g for 30 min, the crude extract was used for a batch binding of 40 min in a three-dimensional rotating mixer with 5 mL of Ni-sepharose (cytiva) under orbital. Then, the tubes were centrifuged at 700× g at 4 °C for 5 min, and the resin was loaded onto a gravity flow column (econo column BioRad) connected to a BioLogic LP (BioRad). It was subsequently washed (1 mL/min) with a lysis buffer for 40 min and with a wash buffer (50 mM HEPES pH 7.5, 500 mM NaCl, 5% Glycerol, 45 mM Imidazole, 0.5 mM TCEP) for 25 min. A further 10 min wash with a Hi-salt buffer (50 mM HEPES pH 7.5, 1 M NaCl, 5% Glycerol, 0.5 mM TCEP) was performed, followed by another 10 min of wash buffer. Proteins were eluted with the addition of 15 mL of elution buffer (50 mM HEPES pH 7.5, 500 mM NaCl, 5% Glycerol, 300 mM Imidazole, 0.5 mM TCEP). The elution fraction was analyzed for purity by SDS page, and clean fractions were pooled and dialyzed against a desalting buffer containing 25 mM HEPES pH 7.5, 250 mM NaCl, 20% Glycerol, and 0.25 mM TCEP. Proteins were stored at −80 °C.
# The SARS-CoV-2 nsp13 helicase-associated activity was measured in a transparent 96-well plate (PerkinElmer), as described in [34]. Briefly, the reaction mixture contained 20 mM Tris–HCl pH 7.2, 50 mM NaCl, 2 mM MgCl2, 10 µg/mL of BSA, 180 µM TCEP, 5% DMSO or inhibitor, and 25 nM of purified nsp13. The reaction was started by adding 400 µM ATP. Total reaction volume was 25 μL. Compound Licoflavone C was used as positive control of inhibition. The reaction lasted for 30 min at 37 °C. […] The products were measured with Victor Nivo (Perkin) at 650 nm.
# [2] = target: T1, SARS-CoV-2 nsp13; test: SARS-CoV-2 nsp13 unwinding-associated activity; format: biochemical; details: for IC50: concentration required to inhibit nsp13-associated unwinding activity by 50%, 1 nM nsp13, 1 mM ATP, 750 nM DNA substrate; for Percentage of control, unwinding activity: measured in the presence of the highest tested compound concentration
# Description: as §1
# The SARS-CoV-2 nsp13 unwinding-associated activity was measured in black 384-well plates (PerkinElmer). The reaction mixture, as described in [34], contained 20 mM Tris–HCl pH 7.2. 50 mM NaCl, 2 mM MgCl2, 10 μg/mL of BSA, 180 μM TCEP, 2 μM Hel Capture oligo (5′- […] -3′) (Biomers) 5% DMSO or inhibitor, and 1 nM of purified nsp13. The enzyme was pre-incubated for 10 min with the inhibitor at room temperature, and then reaction was started by adding 1 mM ATP and 750 nM annealed DNA substrate (5′- […]-Cy3-3′. 5′- BHQ-2-[…]-3′) (Biomers). Reaction volume was 40 μL. Compounds SSYA10-001 and Licoflavone C were used as positive controls of inhibition; the reaction lasted for 15 min at 37 °C, and then the products were measured with Victor Nivo (Perkin) at 530/580 nm.
# [3] = concentration required to inhibit nsp13-associated ATPase activity by 50%, 25 nM nsp13, 400 µM ATP
Molecule,"IC50 [1, 3] [µM]","Percentage of control, NTPase activity [1] [%]",IC50 [2] [µM],"Percentage of control, unwinding activity [2] [%]","IC50 NTPase [1, 3]"
CCO/N=C(\C(=O)N[C@@H]1C(=O)N2C(C(=O)[O-])=C(Sc3nc(-c4cc[n+](C)cc4)cs3)CS[C@H]12)c1nsc(NP(=O)(O)O)n1 [Ceftaroline fosamil],> 30,100,> 30,100,–
CC(C)=CCc1c(O)cc(O)c2c(=O)cc(-c3ccc(O)cc3)oc12 [Licoflavone C],20.9 ± 0.8,–,8.7 ± 1.3,–,–
CC(C)(Cc1cccc(CC(=O)NCc2cccc(-c3ccc(O)cc3)c2)c1)NC[C@H](O)c1ccc(O)c(NS(C)(=O)=O)c1 [PF-00610355],> 30,100,22.4 ± 1.7,–,not active
CC(C)(C)c1cc(NC(=O)NCc2ccccc2Sc2ccc3nnc(-c4ccccc4SCCO)n3c2)n(-c2ccc(O)c(Cl)c2)n1 [PF-03715455],9.26 ± 1.93,–,3.02 ± 0.21,–,–
OC[C@H]1O[C@@H](Oc2cc(O)cc(/C=C/c3ccc(O)cc3)c2)[C@H](O)[C@@H](O)[C@@H]1O [Polydatin],> 30,100,> 30,100,–
C=CCn1c(CSc2ccccc2[N+](=O)[O-])n[nH]c1=S [SSYA10-001],–,–,2.3 ± 0.7,–,–
nicotinamide adenine dinucleotide [NADH],–,100,–,100,–
